Values after ≈ are worked out from the molar mass of the structure shown.
Key:
N. gonorrhoeae PBP2 = biological target: T1, N. gonorrhoeae PBP2 (Neisseria gonorrhoeae, UniProt P08149); test: Bocillin-FL fluorescence polarization competition binding assay, N. gonorrhoeae PBP2; conditions: fluorescence polarization competition binding assay using Bocillin-FL; read-out: N. gonorrhoeae PBP2 Potency
T1 construct: made in house
Summary of the method: (§1)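 Fluorescence polarization (ex 490/em 520 nm) competition of inhibitors against Bocillin-FL at 0.1 μM, read up to 60 min. Final PBP levels: E. coli PBP3 1.5 μM; A. baumannii PBP2 2.5 μM, PBP3 0.2 μM in Tris pH 8.0/NaCl/glycerol/Tween 20; N. gonorrhoeae PBP2 […] in Hepes pH 8.0/NaCl/glycerol. EC50 = concentration halving PBP-bound Bocillin-FL.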

P. aeruginosa PBP3 = biological target: T2, P. aeruginosa PBP3 (Pseudomonas aeruginosa, UniProt G3XD46); test: Bocillin-FL fluorescence polarization competition binding assay, P. aeruginosa PBP3; conditions: fluorescence polarization competition binding assay using Bocillin-FL
T2 construct: made in house
Summary of the method: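 Binding of boronic acid inhibitors to purified Pseudomonas aeruginosa (PA01) PBP3 was measured by fluorescence polarization competition with Bocillin-FL, a fluorescent penicillin V. Reactions of 80 μl contained 0.75 μM PBP3 and 0.1 μM Bocillin-FL in 50 mM Hepes (pH 8.0), 300 mM NaCl and 5% (v/v) glycerol, in black 384-well plates. FP (Excitation 490 nm, Emission 520 nm) was read for up to 60 minutes. EC50 is the concentration that halves PBP-bound Bocillin-FL.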

[1] = test system: A. baumannii CDC-0036 OXA-65, and OXA-24; test: Broth microdilution MIC in iron-depleted CAMHB (IDM); type: cell-based; conditions: Acinetobacter baumannii, read-out: Minimum Inhibitory Concentration, CDC-0036
Summary of the method: (§2)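 IDM = CAMHB stripped with Chelex 100 resin 2 h, supplemented CaCl2 82.5 mg/L, MgCl2 94.1 mg/L, ZnSO4 10 μM, pH 7.3. 2-fold compound dilutions; 2-8×10^5 CFU/mL; 37° C; Acinetobacter 20-24 h, Pseudomonas 16-20 h. Visual MIC.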

[2] = test system: P. aeruginosa (ΔmexAB-oprM); test: as above; type: cell-based; conditions: Pseudomonas aeruginosa, read-out: Minimum Inhibitory Concentration, P. aeruginosa ΔmexAB-OprM
Summary of the method: as §2

[3] = test system: A. baumannii CDC-0033 producing NDM-1, and OXA-94; test: as above; type: cell-based; conditions: Acinetobacter baumannii, read-out: Minimum Inhibitory Concentration, CDC-0033
Summary of the method: as §2

P. aeruginosa CDC-0110 = test: as above; type: cell-based; conditions: Pseudomonas aeruginosa, CDC0110, read-out: Minimum Inhibitory Concentration, P. aeruginosa CDC-0110
Summary of the method: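 CLSI broth microdilution in iron-depleted cation-adjusted Mueller Hinton broth (Chelex-treated, Ca, Mg, Zn restored, pH 7.3), inoculum 2-8×10^5 CFU/mL, 2-fold compound dilutions. Pseudomonas plates incubated 16-20 h at 37 °C; MIC read visually as lowest concentration without growth.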

[4] = Bocillin-FL fluorescence polarization competition binding assay, A. baumannii PBP3; conditions: fluorescence polarization competition binding assay using Bocillin-FL; column 3; read-out: 4. baumannii PBP1a Potency
Summary of the method: as §1

T2 sequence (G3XD46 whole entry): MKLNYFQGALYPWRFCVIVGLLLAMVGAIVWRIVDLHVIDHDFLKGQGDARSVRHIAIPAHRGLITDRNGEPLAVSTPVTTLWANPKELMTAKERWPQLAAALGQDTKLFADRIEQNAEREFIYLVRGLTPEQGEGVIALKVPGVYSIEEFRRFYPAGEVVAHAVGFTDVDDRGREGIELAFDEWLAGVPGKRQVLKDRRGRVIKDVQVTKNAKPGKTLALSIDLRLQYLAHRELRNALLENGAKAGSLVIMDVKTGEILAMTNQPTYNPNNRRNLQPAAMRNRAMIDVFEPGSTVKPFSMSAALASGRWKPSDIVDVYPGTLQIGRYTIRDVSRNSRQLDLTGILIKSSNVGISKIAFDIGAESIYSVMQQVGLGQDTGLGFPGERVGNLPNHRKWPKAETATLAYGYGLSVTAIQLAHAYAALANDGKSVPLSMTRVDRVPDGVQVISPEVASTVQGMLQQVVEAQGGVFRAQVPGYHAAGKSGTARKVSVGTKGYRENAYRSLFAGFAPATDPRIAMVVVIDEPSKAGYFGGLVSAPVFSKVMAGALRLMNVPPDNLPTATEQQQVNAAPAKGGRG
T1 sequence (P08149 whole entry): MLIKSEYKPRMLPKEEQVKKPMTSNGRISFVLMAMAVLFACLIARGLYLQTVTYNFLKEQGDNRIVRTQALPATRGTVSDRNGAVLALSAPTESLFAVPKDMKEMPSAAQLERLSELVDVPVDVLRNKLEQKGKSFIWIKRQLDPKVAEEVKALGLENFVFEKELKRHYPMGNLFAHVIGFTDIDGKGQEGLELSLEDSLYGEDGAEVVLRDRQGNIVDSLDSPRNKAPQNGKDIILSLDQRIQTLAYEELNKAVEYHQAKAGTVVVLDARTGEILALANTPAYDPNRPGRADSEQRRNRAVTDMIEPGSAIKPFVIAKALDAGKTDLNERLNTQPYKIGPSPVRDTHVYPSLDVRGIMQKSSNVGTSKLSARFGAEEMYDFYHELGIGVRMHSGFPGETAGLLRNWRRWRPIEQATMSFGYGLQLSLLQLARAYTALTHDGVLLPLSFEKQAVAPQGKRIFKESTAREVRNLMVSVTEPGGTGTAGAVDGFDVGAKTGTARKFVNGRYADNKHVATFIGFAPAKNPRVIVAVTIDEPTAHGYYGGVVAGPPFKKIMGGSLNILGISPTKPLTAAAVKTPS

Compound | EC50 (N. gonorrhoeae PBP2) | P. aeruginosa PBP3 Potency (P. aeruginosa PBP3) | MIC [1] | MIC [2] | MIC [3] | MIC (P. aeruginosa CDC-0110) | EC50 [4]
C[C@@H](O)[C@@H](NC(=O)N1CCN(CCNC(=O)c2c(F)cc(O)c(O)c2Cl)C(=O)C1=O)C(=O)N[C@H]1Cc2ccc(F)c(C(=O)O)c2OB1O [Example 102, (R)-3-((2R,3R)-2-(4-(2-(2-chloro-6-fluoro-3,4-dihydroxybenzamido)ethyl)-2,3-dioxopiperazine-1-carboxamido)-3-hydroxybutanamido)-7-fluoro-2-hydroxy-3,4-dihydro-2H-benzo[e][1,2]oxaborinine-8-carboxylic acid] | 10 to 30 µM | D (D represents a potency <10 μM) | 32 to 64 mg/L (≈ 45.9 to 91.7 µM) | 0.5 to 1 mg/L (≈ 0.717 to 1.43 µM) | 32 to 64 mg/L (≈ 45.9 to 91.7 µM) | 0.5 to 1 mg/L (≈ 0.717 to 1.43 µM) | 30 to 100 µM
NCCN1CCN(C(=O)N[C@@H](C(=O)N[C@H]2Cc3ccc(F)c(C(=O)O)c3OB2O)c2cc(F)c(O)c(O)c2Cl)C(=O)C1=O (single isomer, unassigned) [Example 179] | > 100 µM | D (D represents a potency <10 μM) | 2 to 4 mg/L (≈ 3.2 to 6.39 µM) | 0.25 mg/L (≈ 0.4 µM) | 8 to 16 mg/L (≈ 12.8 to 25.6 µM) | 0.5 to 1 mg/L (≈ 0.799 to 1.6 µM) | > 100 µM

Reference: patent US20230114728A1 (Venatorx Pharmaceuticals, Inc., priority 2019, published 2023)
